{
  "source": "patent US20210038559A1",
  "about": "“CANNABINOIDS AND DERIVATIVES FOR PROMOTING IMMUNOGENICITY OF TUMOR AND INFECTED CELLS” (priority 2018, published 2021)",
  "data": [
    {"tested_on": "MHC-I expression by COLO 205 cells", "experiment": "cells", "assay_type": "cell-based, human", "conditions": "not given", "method": "(§1) A panel of synthetic cannabinoids (Cayman Chemical, #9002891) was tested for MHC class I-inducing capability in COLO 205 cells as described above. COLO 205 cells were treated with the compounds at a concentration of 35 μM and evaluated for cell surface MHC class I expression after 48 hours. Cells were harvested, stained with MHC-I mAb W6/32 (Thermo Fisher). MHC-I expression was determined by flow cytometry.", "units": {"Induction Fold": "Fold"}, "values": [
      {"molecule": "CCC(F)CCn1nc(C(=O)N[C@H](C(=O)OC)C(C)C)c2ccccc21", "note": "(some centres unmarked) [Example 210, methyl (1-(3-fluoropentyl)-1H-indazole-3-carbonyl)-1-valinate]", "Induction Fold": 1.84},
      {"molecule": "(1-heptyl-5-phenyl-1H-pyrrol-3-yl)-1-naphthalenyl-methanone [Example 212]", "Induction Fold": 1.83},
      {"molecule": "C#CCCCCCCCCCNC(=O)Oc1cccc(-c2cccc(C(N)=O)c2)c1", "note": "[Example 182, 3′-carbamoyl-biphenyl-3-yl-undecynecarbamate]", "Induction Fold": 1.93},
      {"molecule": "O=C(Oc1cccc2cccnc12)c1cn(CC2CCCCC2)c2ccccc12", "note": "[Example 38, 1-(cyclohexylmethyl)-8-quinolinyl ester-1H-indole-3-carboxylic acid]", "Induction Fold": 3.15}
    ]},
    {"tested_on": "MHC-I expression by COLO 205 cells", "experiment": "cells", "assay_type": "cell-based, human", "conditions": "Homo sapiens, COLO 205, 48 h, MHC-I expression, COLO 205 cells, compounds at 35 μM, 48 hours, flow cytometry (W6/32); read-out: Induction Fold", "method": "as §1", "values": [
      {"molecule": "CCCCCn1cc(C(=O)Cc2ccc(C)cc2)c2ccccc21", "note": "[Example 181, 2-(4-methylphenyl)-1-(1-pentyl-1H-indol-3-yl)-ethanone]", "fold induction at 35 µM": 1.93},
      {"molecule": "O=C(Oc1ccc2ncccc2c1)c1cn(CC2CCCCC2)c2ccccc12", "note": "[Example 314, quinolin-6-yl 1-(cyclohexylmethyl)-1H-indole-3-carboxylate]", "fold induction at 35 µM": 1.32},
      {"molecule": "CCCCCn1cc(C(=O)c2cccc3cc(C)ccc23)c2ccccc21", "note": "[Example 240, (6-methylnaphthalen-1-yl)(1-pentyl-1H-indol-3-yl)methanone]", "fold induction at 35 µM": 1.69},
      {"molecule": "Cc1ccc(C(=O)c2cn(CCN3CCOCC3)c3ccccc23)c2ccccc12", "note": "[Example 203, (4-methyl-1-naphthalenyl)[1-[2-(4-morpholinyl)ethyl]-1H-indol-3-yl]-methanone]", "fold induction at 35 µM": 1.87},
      {"molecule": "CCCCCn1nc(C(=O)NC(C)(C(N)=O)C(C)C)c2ccccc21", "note": "(single isomer, unassigned) [Example 151, N-(1-amino-2,3-dimethyl-1-oxobutan-2-yl)-1-pentyl-1H-indazole-3-carboxamide]", "fold induction at 35 µM": 2.13},
      {"molecule": "CCCCCn1cc(C(=O)NCc2ccccc2)c2ccccc21", "note": "[Example 91, 1-pentyl-N-(phenylmethyl)-1H-indole-3-carboxamide]", "fold induction at 35 µM": 2.48},
      {"molecule": "CCCCCn1cc(C(=O)c2cccc3ccc(CC)cc23)c2ccccc21", "note": "[Example 231, (7-ethyl-1-naphthalenyl)(1-pentyl-1H-indol-3-yl)-methanone]", "fold induction at 35 µM": 1.72},
      {"molecule": "CCCCCn1cc(C(=O)N[C@@H](Cc2ccccc2)C(N)=O)c2ccccc21", "note": "[Example 246, (S)-N-(1-amino-1-oxo-3-phenylpropan-2-yl)-1-pentyl-1H-indole-3-carboxamide]", "fold induction at 35 µM": 1.65},
      {"molecule": "O=C(c1cccc2ccccc12)c1cn(Cc2ccc(F)cc2)c2ccccc12", "note": "[Example 220, (1-(4-fluorobenzyl)-1H-indol-3-yl)(naphthalen-1-yl)methanone]", "fold induction at 35 µM": 1.77},
      {"molecule": "CCCCCCc1ccc(O)cc1OCCCCCCCCCCC(=O)NC1CC1", "note": "[Example 302, N-cyclopropyl-11-(2-hexyl-5-hydroxyphenoxy)-undecanamide]", "fold induction at 35 µM": 1.4},
      {"molecule": "O=C(c1ccc2ccccc2c1)c1cn(CCCCCF)c2ccccc12", "note": "[Example 139, (1-(5-fluoropentyl)-1H-indol-3-yl)(naphthalen-2-yl)methanone]", "fold induction at 35 µM": 2.19},
      {"molecule": "CCCCCn1cc(C(=O)Oc2ccc3ncccc3c2)c2ccccc21", "note": "[Example 256, quinolin-6-yl 1-pentyl-1H-indole-3-carboxylate]", "fold induction at 35 µM": 1.59},
      {"molecule": "CCCCCn1cc(C(=O)Nc2ccccc2)c2ccccc21", "note": "[Example 307, 1-pentyl-N-phenyl-1H-indole-3-carboxamide]", "fold induction at 35 µM": 1.38},
      {"molecule": "CN1CCCCC(n2cc(C(=O)c3ccccc3I)c3ccccc32)C1", "note": "(centres unmarked) [Example 24, (2-iodophenyl)(1-(1-methylazepan-3-yl)-1H-indol-3-yl)methanone]", "fold induction at 35 µM": 3.64},
      {"molecule": "O=C(Nc1cccc2cccnc12)c1nn(CCCCCF)c2ccccc12", "note": "[Example 166, 1-(5-fluoropentyl)-N-(quinolin-8-yl)-1H-indazole-3-carboxamide]", "fold induction at 35 µM": 2.01},
      {"molecule": "CC(C)(C)C(NC(=O)c1nn(CCCCCF)c2ccccc12)C(N)=O", "note": "(centres unmarked) [Example 289, N-[1-(aminocarbonyl)-2,2-dimethylpropyl]-1-(5-fluoropentyl)-1H-indazole-3-carboxamide]", "fold induction at 35 µM": 1.44},
      {"molecule": "CCC(Cl)CCn1cc(C(=O)c2cccc3ccccc23)c2ccccc21", "note": "(centres unmarked) [Example 114, (1-(3-chloropentyl)-1H-indol-3-yl)(naphthalen-1-yl)methanone]", "fold induction at 35 µM": 2.35},
      {"molecule": "CN(C)C(=O)n1nnnc1Cc1ccc(-c2ccccc2)cc1", "note": "[Example 288, 5-([1,1′-biphenyl]-4-ylmethyl)-N,N-dimethyl-1H-tetrazole-1-carboxamide]", "fold induction at 35 µM": 1.45},
      {"molecule": "COc1cccc2c(C(=O)N[C@@H]3C(C)(C)[C@@H]4CC[C@@]3(C)C4)c(C)n(CCN3CCOCC3)c12", "note": "[Example 295, 7-methoxy-2-methyl-1-[2-(4-morpholinyl)ethyl]-N-[(1S,2S,4R)-1,3,3-trimethylbicyclo[2.2.1]hept-2-yl]-1H-indole-3-carboxamide]", "fold induction at 35 µM": 1.43},
      {"molecule": "CC1(C)C(C(=O)c2cn(CCCCCBr)c3ccccc23)C1(C)C", "note": "[Example 222, [1-(5-bromopentyl)-1H-indol-3-yl](2,2,3,3-tetramethylcyclopropyl)-methanone]", "fold induction at 35 µM": 1.76},
      {"molecule": "CC(C)(NC(=O)c1cn(CCCCCF)c2ncccc12)c1ccccc1", "note": "[Example 313, 1-(5-fluoropentyl)-N-(2-phenylpropan-2-yl)-1H-pyrrolo[2,3-b] pyridine-3-carboxamide]", "fold induction at 35 µM": 1.33},
      {"molecule": "COc1ccc(C(=O)c2c(C)n(CCN3CCOCC3)c3ccccc23)cc1", "note": "[Example 308]", "fold induction at 35 µM": 1.38},
      {"molecule": "CCCCCn1cc(C(=O)c2cc(Cl)cc3ccccc23)c2ccccc21", "note": "[Example 263, (3-chloronaphthalen-1-yl)(1-pentyl-1H-indol-3-yl)methanone, hydrate]", "fold induction at 35 µM": 1.56},
      {"molecule": "CCC(F)CCCn1cc(C(=O)c2cccc3ccccc23)c2ccccc21", "note": "(centres unmarked) [Example 173, (1-(4-fluorohexyl)-1H-indol-3-yl)(naphthalen-1-yl)methanone]", "fold induction at 35 µM": 1.98},
      {"molecule": "COC(=O)[C@@H](NC(=O)c1nn(CC2CCCCC2)c2ccccc12)C(C)C", "note": "[Example 14, N-[[1-(cyclohexylmethyl)-1H-indazol-3-yl]carbonyl]-L-valine, methyl ester]", "fold induction at 35 µM": 4.2},
      {"molecule": "O=C(c1cccc2ccccc12)c1nc2ccccc2n1CCCCCF", "note": "[Example 40, (1-(5-fluoropentyl)-1H-benzo[d]imidazol-2-yl)(naphthalen-1-yl)methanone]", "fold induction at 35 µM": 3.14},
      {"molecule": "O=C(Oc1ccc2ccncc2c1)c1cn(CCCCCF)c2ccccc12", "note": "[Example 340, isoquinolin-7-yl 1-(5-fluoropentyl)-1H-indole-3-carboxylate]", "fold induction at 35 µM": 1.18},
      {"molecule": "CC(C)C(C)n1cc(C(=O)c2cccc3ccccc23)c2ccccc21", "note": "(centres unmarked) [Example 70, (1-(3-methylbutan-2-yl)-1H-indol-3-yl)(naphthalen-1-yl)methanone]", "fold induction at 35 µM": 2.7},
      {"molecule": "CCCCCn1cc(C(=O)c2c(CC)ccc3ccccc23)c2ccccc21", "note": "[Example 89, (2-ethylnaphthalen-1-yl)(1-pentyl-1H-indol-3-yl)methanone]", "fold induction at 35 µM": 2.5},
      {"molecule": "CCCCCn1cc(C(=O)c2cccc3c(OC)cccc23)c2ccccc21", "note": "[Example 346, (5-methoxynaphthalen-1-yl)(1-pentyl-1H-indol-3-yl)methanone]", "fold induction at 35 µM": 1.13},
      {"molecule": "CCCCCn1cc(C(=O)Oc2cccc3cnccc23)c2ccccc21", "note": "[Example 99, isoquinolin-5-yl 1-pentyl-1H-indole-3-carboxylate]", "fold induction at 35 µM": 2.43},
      {"molecule": "CC(C)[C@H](NC(=O)c1nn(Cc2cccc(F)c2)c2ccccc12)C(N)=O", "note": "[Example 221, N-[(1S)-1-(aminocarbonyl)-2-methylpropyl]-1-[(3-fluorophenyl)methyl]-1H-indazole-3-carboxamide]", "fold induction at 35 µM": 1.77},
      {"molecule": "CCCCCC(C)(C)c1ccc([C@H]2CCC[C@@H](O)C2)c(O)c1", "note": "(relative stereo) [Example 209, cis-5-(1,1-dimethylhexyl)-2-(3-hydroxycyclohexyl)-phenol]", "fold induction at 35 µM": 1.84},
      {"molecule": "O=C(c1ccc(I)cc1)c1cn(CCCCCF)c2ccccc12", "note": "[Example 283, (1-(5-fluoropentyl)-1H-indol-3-yl)(4-iodophenyl)methanone]", "fold induction at 35 µM": 1.46},
      {"molecule": "CCCCCn1cc(C(=O)Oc2ccc3cnccc3c2)c2ccccc21", "note": "[Example 53, isoquinolin-6-yl 1-pentyl-1H-indole-3-carboxylate]", "fold induction at 35 µM": 2.97},
      {"molecule": "CCCC(Cl)Cn1cc(C(=O)C2C(C)(C)C2(C)C)c2ccccc21", "note": "(centres unmarked) [Example 157, (1-(2-chloropentyl)-1H-indol-3-yl)(2,2,3,3-tetramethylcyclopropyl)methanone]", "fold induction at 35 µM": 2.07},
      {"molecule": "CC(C)[C@H](NC(=O)c1c2ccccc2nn1CC1CCCCC1)C(N)=O", "note": "[Example 343, (S)-N-(1-amino-3-methyl-1-oxobutan-2-yl)-2-(cyclohexylmethyl)-2H-indazole-3-carboxamide]", "fold induction at 35 µM": 1.14}
    ]},
    {"tested_on": "MHC-I expression by COLO 205 cells", "experiment": "cells", "assay_type": "cell-based, human", "conditions": "MHC-I expression, COLO 205 cells, compounds at 35 μM, 48 hours, flow cytometry (W6/32)", "method": "as §1", "units": {"Induction Fold": "Fold"}, "values": [
      {"molecule": "O=C(Oc1cccc2cccnc12)c1nn(CCCCCF)c2ccccc12", "note": "[Example 311, 1-(5-fluoropentyl)-8-quinolinyl ester-1H-indazole-3-carboxylic acid]", "Induction Fold": 1.36},
      {"molecule": "CCCCCn1nc(C(=O)OC23CC4CC(CC(C4)C2)C3)c2ccccc21", "note": "[Example 243, (3s,5s,7s)-adamantan-1-yl 1-pentyl-1H-indazole-3-carboxylate]", "Induction Fold": 1.67},
      {"molecule": "COC(=O)[C@@H](NC(=O)c1cn(CC2CCCCC2)c2ccccc12)C(C)(C)C", "note": "[Example 31, N-[[1-(cyclohexylmethyl)-1H-indol-3-yl]carbonyl]-3-methyl-1-valine, methyl ester]", "Induction Fold": 3.35}
    ]}
  ]
}
